From patent US9765294B2 (priority 2013, dated 2017)
Read-outs that look alike come from different tables or passages of the source.

Tests used:
[1] = test system: Bordetella pertussis; format: cell-based
[2] = test system: B. pertussis; format: cell-based, Bordetella pertussis; conditions: for Growth: 53 h; for Biomass yield after 53 h: sole sulfur source, 35° C.; for Support of growth as the sole source of sulfur: medium containing no other S source
[3] = test system: B. pertussis; assay: Growth in minimal media containing only one amino acid, shake-flasks; format: cell-based, Bordetella pertussis; conditions: L-cysteine 125 mM as single amino acid, no thiosulfate added
Description: Assays were performed in order to determine whether growth of B. pertussis is possible in minimal media containing a single amino acid as the sole source of carbon and nitrogen. A shake-flask containing 7.5 ml fresh medium (B-CDM containing 0.604 g/L niacin) was inoculated with 10^9 B. pertussis CFUs and incubated at 35° C. (+/−1° C.) and 150 rpm for 24 h (+/−5 h). Cells were harvested by centrifugation, washed twice with NaCl 0.9% (w/v), and resuspended in fresh medium (see composition in Table 12) at a theoretical OD650 nm of 0.5, as calculated from the OD650 nm of the culture before harvest. 1 ml of this cell suspension was used to inoculate shake-flasks containing 30 ml of the medium in Table 12, supplemented with a single amino acid (L-cysteine 125 mM, L-proline 125 mM, L-glutamate 125 mM, L-glutamine 125 mM, L-aspartate 30 mM, L-asparagine 125 mM, L-serine 125 mM, or L-alanine 125 mM) as a source of C and N, and thiosulfate 0.25 mM as a source of S (except for L-Cys supplementation, where no thiosulfate was added). The same medium with ammonium chloride (25 mM) and thiosulfate (0.25 mM), but no amino acid, was used as a negative control. The shake flasks were then incubated for approximately 10 days at 35° C. under constant shaking (150 rpm). Growth was monitored as OD650 nm.

[4] = test system: B. pertussis; format: cell-based, Bordetella pertussis
[5] = buffer 2.5 g/L, relative to Tris control
[6] = buffer 5.0 g/L, relative to Tris control
[7] = buffer 10.0 g/L, relative to Tris control
[8] = buffer 20.0 g/L, relative to Tris control
[9] = buffer 6.1 g/L, control conditions

[Cl][Cu][Cl] [CuCl2]
Biomass yield [1]: significant increase

N[C@@H](CS)C(=O)O [L-cysteine]
Growth ([2]; 27 mM in medium): + | Biomass yield after 53 h ([2]; 27 mM in medium): 0.512 OD650nm | Need for an additional source of sulfur [3]: no additional source of sulfur was required

O=S(=O)(O)CCCN1CCOCC1 [MOPS, 3-(N-morpholino)propanesulfonic acid]
Support of growth as buffer in B-CDM [4]: able to support growth | Relative biomass yield after 24 h [4, 5]: 114% | Relative biomass yield after 48 h [4, 5]: 91% | Relative biomass yield after 24 h [4, 6]: 85% | Relative biomass yield after 48 h [4, 6]: 88% | Relative biomass yield after 24 h [4, 7]: 111% | Relative biomass yield after 48 h [4, 7]: 84% | Relative biomass yield after 24 h [4, 8]: 81% | Relative biomass yield after 48 h [4, 8]: 76%

O=S(=O)([O-])[O-].[Na+].[Na+] [disodium sulfate]
Growth ([2]; 12 mM in medium): − | Biomass yield after 53 h ([2]; 12 mM in medium): 0.015 OD650nm | Support of growth as the sole source of sulfur [2]: not able to support growth

O=S([O-])[O-].[Na+].[Na+] [disodium sulfite]
Growth ([2]; 1 mM in medium): − | Biomass yield after 53 h ([2]; 1 mM in medium): 0.011 OD650nm | Biomass yield after 53 h ([2]; 12 mM in medium): 0.007 OD650nm | Support of growth as the sole source of sulfur [2]: not able to support growth

O=S(O)(O)=S [disodium thiosulfate]
Growth ([2]; 1 mM in medium): + | Biomass yield after 53 h ([2]; 1 mM in medium): 0.227 OD650nm | Growth ([2]; 12 mM in medium): + | Biomass yield after 53 h ([2]; 12 mM in medium): 0.472 OD650nm | Support of growth as the sole source of sulfur [2]: growth was observed

O=P(O)(O)OC(CO)CO [β-glycerophosphate]
Support of growth as buffer in B-CDM [4]: able to support growth | Relative biomass yield after 24 h [4, 5]: 88% | Relative biomass yield after 48 h [4, 5]: 79% | Relative biomass yield after 24 h [4, 6]: 89% | Relative biomass yield after 48 h [4, 6]: 67% | Relative biomass yield after 24 h [4, 7]: 68% | Relative biomass yield after 48 h [4, 7]: 59% | Relative biomass yield after 24 h [4, 8]: 46% | Relative biomass yield after 48 h [4, 8]: 45%

tris(hydroxymethyl)aminomethane
Relative biomass yield after 24 h [4, 9]: 100% | Relative biomass yield after 48 h [4, 9]: 100%
